Results reported in article PMC2994023 (Interdisciplinary Toxicology, 2010).

Assays:
[1] = Incubation of N-(2-methoxyphenyl)hydroxylamine without hepatic microsomal enzymes or without NADPH (spontaneous conversion); type: physicochemical; details: pH 7.4, without hepatic microsomal enzymes or without NADPH
Procedure: At pH 7.4, used for microsomal incubations, their spontaneous formation was negligible.

rat hepatic microsomes = assay: Metabolism of N-(2-methoxyphenyl)hydroxylamine by hepatic microsomes of control (uninduced) rats, HPLC of metabolites; type: in vitro ADME; details: 1.0 mM substrate
Procedure: (§1) The study was conducted in accordance with the Regulations for the Care and Use of Laboratory Animals (311/1997, Ministry of Agriculture, Czech Republic), which complies with Declaration of Helsinki. Microsomes from livers of ten untreated rats and three rabbits were prepared by the procedure described previously (Stiborová et al., [1988]). Microsomes from the livers of ten male Wistar rats pretreated with β-NF (Stiborová et al., [1988]) were isolated as described (Stiborová et al., [1988]; [1995]), those pretreated with phenobarbital (PB) as reported by Hodek et al. ([1988]), and those pretreated with ethanol were isolated using a procedure described by Yang et al. ([1985]). Protein concentrations in the microsomal fractions were assessed using the bicinchoninic acid protein assay with bovine serum albumin as a standard (Wiechelman et al., [1988]). The concentration of CYP was estimated according to Omura and Sato ([1964]), by measuring the absorption of the complex of reduced CYP with carbon monoxide. […] The activity of NADPH:CYP reductase in rat hepatic microsomes was measured according to Sottocasa et al. ([1967]) using cytochrome c as substrate (i.e., as NADPH:cytochrome c reductase).

[2] = system: rat hepatic microsomes enriched with CYP2E1; assay: Metabolism of N-(2-methoxyphenyl)hydroxylamine by hepatic microsomes of rats pre-treated with ethanol; type: in vitro ADME
Procedure: as §1

NADPH:CYP reductase = NADPH:CYP reductase activity in hepatic microsomes of induced rats (cytochrome c as substrate); details: hepatic microsomes of rats induced with the agent
Procedure: as §1

CYP = CYP concentration in hepatic microsomes of induced rats (CO complex of reduced CYP); details: hepatic microsomes of rats induced with the agent
Procedure: as §1

Sacchromyces cerevisiae = details: ref Brennan and Schiestl ([1997]); cited from earlier work

| Structure (SMILES) | NADPH:CYP reductase activity in hepatic microsomes (NADPH:CYP reductase) [µmol/min/mg protein] | CYP content of hepatic microsomes (CYP) [nmol CYP/mg protein] | also measured |
| --- | --- | --- | --- |
| COc1ccccc1NO [N-(2-methoxyphenyl)hydroxylamine] |  |  | spontaneous formation of metabolite M1 and o-aminophenol [1]: negligible; formation of metabolite M1 (rat hepatic microsomes): negligible; change of levels of o-anisidine versus control microsomes [2]: decreased |
| CCC1(c2ccccc2)C(=O)NC(=O)NC1=O [PB, phenobarbital] | 0.325 | 2.7 |  |
| CCO [ethanol] | 0.201 | 1.8 |  |
| Nc1ccccc1O [o-aminophenol] |  |  | result in the deletion recombination assay (Sacchromyces cerevisiae): positive |
| O=c1cc(-c2ccccc2)oc2ccc3ccccc3c12 [β-NF, β-naphthoflavone] | 0.199 | 1.3 |  |
